Data taken from patent US8759402B2, “Method to inhibit ischemia and reperfusion injury” (Radical Therapeutix, priority 2002, dated 2014).
Blank lines part the entries; values can stand above or below the compound they belong to.

Assays:
[1] = tested on: mitochondrial-encoded proteins (CO-1, ND3); assay: Western blotting of mitochondrial-encoded proteins after CAP perfusion (Example II); design: species or system rat; settings: perfusion with CAP for 30 minutes
[2] = tested on: cytochrome oxidase subunit I; assay: Immunodetection of mitochondrial-encoded proteins after CAP infusion (Example I); design: species or system rabbit; settings: CAP infusion for as little as 15 minutes
isolated rat hearts = assay: Langendorff perfusion, no-flow ischemia/reperfusion of isolated rat heart (infarct size by TTC, CK release, coronary flow); settings: for coronary flow after ischemia: treated hearts, reperfusion; for CK release (in words) / infarct size (in words): cimetidine 200-600 μM, sulfaphenazole 10 μM and 300 μM; for infarct size (in words): 2 hours reperfusion
Protocol: FIG. 2. […] Adult rat hearts were perfused in Langendorff mode for 20 minutes, then subjected to 30 minutes no-flow ischemia followed by a 2 hour reperfusion. […] (A) After 2 hours of reperfusion, hearts were frozen and assessed for infarct size using TTC. Coronary effluent was collected for 15 minutes immediately before and after ischemia and assessed for CK release. […] All procedures were approved by the Animal Care and Use Committee at The Scripps Research Institute (TSRI). […] No-flow ischemia was maintained for 30 minutes and reperfusion was accomplished by restoring flow for 15 minutes for creatine kinase (CK) release determination and dihydroethidium (DHE) staining, or 120 minutes for infarct size determination by triphenyl tetrazolium chloride (TTC) staining. Measurement of CK activity was performed using the CK EC 2.7.3.2 UV-Test kit (Sigma) as per the manufacturer's instructions. The measurement of infarct size after TTC staining was performed as described in Example 1.

[3] = tested on: mitochondrial respiratory chain Complex I, II, IV; assay: Oxygen consumption (respiration) of mitochondria from perfused rat hearts; settings: hearts perfused with chloramphenicol for 30 minutes
Protocol: FIG. 4. […] (B) Mitochondrial respiration was measured by polarography. […] Error bars represent standard deviation. […] Hearts were rapidly minced in ice-cold MSE buffer (in mmol/L, mannitol 220, sucrose 70, EGTA 2, MOPS 5 (pH 7.4), and taurine 2 supplemented with 0.2% fatty acid-free bovine serum albumin (BSA)). Heart tissue was homogenized in MSE with a Polytron type tissue grinder at 11,000 rpm for 2.5 seconds followed by 2 quick strokes at 500 rpm with a loose fit Potter-Elvehjem tissue grinder. The homogenate was centrifuged at 500 g twice for 5 minutes, saving the supernatant. Mitochondria were pelleted from the supernatant by centrifugation at 3000 g twice, and the pellet was rinsed with MSE buffer. The supernatant was saved as crude cytosol. The final pellet was rinsed and resuspended in 50 μl Incubation Medium (in mmol/L, mannitol 220, sucrose 70, EGTA 1, MOPS 5 (pH 7.4), taurine 2, MgCl2 10, and KH2PO4 5, supplemented with 0.2% fatty acid-free BSA) (Scholte et al., 1997). Mitochondria were incubated for 15 minutes on wet ice and protein concentration was determined with BSA as a standard by a Bradford assay. All work was performed on wet ice at 0° C. Oxygen consumption was measured at 30° C. with a Clark type oxygen electrode (Instech) in 600 μl KCl respiration buffer (in mmol/L: KCl 140, EGTA 1, MOPS 10 (pH 7.4), MgCl2 10, and KH2PO4 5, supplemented with 0.2% fatty acid-free BSA) (Scholte et al., 1997; Chance et al., 1961; McKee et al., 1990). Complex II activity was measured using 200 μg mitochondria with succinate, 5 mM, as a substrate. […] For each complex the ADP-stimulated respiration rate (state 3) was measured after the addition of 2 mM ADP; the ADP-independent respiration rate, oligomycin-insensitive (state 4) was measured after the addition of 2 μM oligomycin; and the maximal respiration rate was measured after uncoupling the mitochondria with 2 μM FCCP. Rates were calculated as nA O2/min/mg protein after subtracting the rate that was insensitive to the inhibitors antimycin A, 1 μM, for complex III, and KCN, 1 mM, for complex IV.

isolated rabbit heart = assay: Langendorff perfusion, global ischemia/reperfusion of isolated rabbit heart (infarct size by TTC, CK release)
Protocol: The global ischemia protocol was adapted from that of Tsuchida et al. (1994). All procedures were approved by the Animal Care and Use Committee at The Scripps Research Institute (TSRI). To obtain isolated hearts, hearts were excised from an anesthetized mammal such as a rabbit and quickly cannulated onto the Langendorff perfusion apparatus. The heart is perfused with Krebs-Ringer buffer for 15 minutes before ischemia/reperfusion episodes. No-flow ischemia is maintained for 30 minutes and reperfusion is accomplished by restoring flow for 15 minutes (unless otherwise indicated). Ischemic preconditioning can be induced by three 5 minute cycles of no-flow ischemia and reperfusion immediately preceding the regular ischemia and reperfusion. In brief, the heart was excised from the anesthetized rabbit and quickly cannulated onto the Langendorff perfusion apparatus. The heart was perfused with Krebs-Ringer buffer for 15 minutes before ischemia/reperfusion episodes. No-flow ischemia was maintained for 30 minutes and reperfusion was accomplished by restoring flow for 15 minutes (unless otherwise indicated). Ischemic preconditioning was induced by three 5 minute cycles of no-flow ischemia and reperfusion immediately preceding the regular ischemia and reperfusion. The efficacy of these interventions was verified by measurement of creatine kinase (CK) release and infarct size measurement using triphenyl tetrazolium chloride (TTC) staining (Pain et al., 2000; Downey, 2001). The measurement of infarct size was essentially identical to that detailed by Downey (2001) except for the method of quantitation. After the TTC reaction, the heart slices were scanned into TIFF files and analyzed with Adobe Photoshop 5.5. The images were digitally manipulated in an identical manner to ensure equivalent outcome. […] The histogram counts of red and white were recorded. The percent infarction was calculated as white counts divided by the sum of red plus white counts.

[4] = tested on: rabbit heart (circumflex coronary artery occlusion); assay: Rabbit circumflex coronary artery occlusion and reperfusion; type: in vivo; settings: n=6
[5] = tested on: p46 (EF-Tumt) phosphorylation; assay: Phosphorylation of mitochondrial p46 (EF-Tumt) with [γ-32P]ATP in the presence of kinase inhibitors; type: biochemical, rabbit
Protocol: For phosphorylation reactions, 100 μg of purified mitochondria was incubated in MSE buffer supplemented with 25 mmol/L HEPES-KOH [pH 7.5], 10 mmol/L magnesium acetate, 10 μmol/L ATP (cold), and 10 μCi [γ-^32P]ATP for 30 minutes at 30° C. with or without 250 μg of cytosol. The reaction mixture was subsequently centrifuged for 5 minutes at 10,000 g. The mitochondrial pellet was resuspended in 500 μL of MC buffer and washed twice. The mitochondrial proteins were resolved on a 12% polyacrylamide gel, transferred to nitrocellulose, and detected by autoradiography.
For protein kinase inhibition experiments, cytosols were incubated with the inhibitors at the indicated concentrations, then mitochondria were added and the reaction was initiated with the addition of ATP. Serine/threonine kinase inhibitors (Calbiochem, catalog No. 539572) included bisindolylmaleimide I, 10 nmol/L; H-89, 48 μmol/L; protein kinase G inhibitor, 86 μmol/L; ML-7, 0.3 μmol/L; KN-93, 0.37 μmol/L; and staurosporine, 10 nmol/L. Tyrosine kinase inhibitors (Calbiochem, catalogue No. 657021) included genistein, 25 μmol/L; PP2, 5 nmol/L; AG490, 15 μmol/L; AG1296, 1 μmol/L; and AG1478, 3 nmol/L.

CYP2D2 = target: T1, CYP2D2 (Rattus norvegicus, UniProt P10634); assay: AMMC demethylase activity in CYP2D2 supersomes; settings: sulfaphenazole 50 μM
T1 sequence (P10634 1-500): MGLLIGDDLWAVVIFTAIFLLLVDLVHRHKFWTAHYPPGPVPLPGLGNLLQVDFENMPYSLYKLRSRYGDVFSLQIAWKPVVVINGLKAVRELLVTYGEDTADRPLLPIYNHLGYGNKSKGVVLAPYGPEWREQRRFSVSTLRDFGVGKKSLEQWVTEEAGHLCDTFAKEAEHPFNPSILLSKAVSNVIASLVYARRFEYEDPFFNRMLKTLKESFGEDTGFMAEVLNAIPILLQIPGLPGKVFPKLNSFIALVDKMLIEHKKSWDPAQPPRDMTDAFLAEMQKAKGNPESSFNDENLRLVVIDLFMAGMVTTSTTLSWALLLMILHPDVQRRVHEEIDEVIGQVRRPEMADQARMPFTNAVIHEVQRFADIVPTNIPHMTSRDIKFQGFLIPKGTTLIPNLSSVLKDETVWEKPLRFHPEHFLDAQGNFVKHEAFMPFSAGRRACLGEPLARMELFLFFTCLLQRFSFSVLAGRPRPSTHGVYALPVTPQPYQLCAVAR

CYP2D6 = CYP2D6 (Homo sapiens, UniProt P10635); assay: AMMC demethylation by recombinant CYP2D6; type: biochemical; settings: recombinant system
CYP2D6, sequence (P10635 whole entry): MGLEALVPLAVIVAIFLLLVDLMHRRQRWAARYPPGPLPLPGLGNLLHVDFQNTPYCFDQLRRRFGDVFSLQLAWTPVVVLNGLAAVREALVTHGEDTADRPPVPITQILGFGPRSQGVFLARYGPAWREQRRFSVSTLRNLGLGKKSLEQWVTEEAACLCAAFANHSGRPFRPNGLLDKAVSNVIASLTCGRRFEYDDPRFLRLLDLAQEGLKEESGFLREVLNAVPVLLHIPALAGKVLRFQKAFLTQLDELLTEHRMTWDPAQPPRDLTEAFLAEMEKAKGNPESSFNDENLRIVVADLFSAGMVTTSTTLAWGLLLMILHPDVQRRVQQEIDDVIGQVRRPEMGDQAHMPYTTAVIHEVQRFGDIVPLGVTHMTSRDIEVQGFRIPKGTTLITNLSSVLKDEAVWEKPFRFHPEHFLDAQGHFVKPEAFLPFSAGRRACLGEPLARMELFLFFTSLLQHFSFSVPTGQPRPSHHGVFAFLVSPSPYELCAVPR

[6] = tested on: AMMC demethylase (cytochrome P450) in rat liver microsomes; assay: Fluorometric cytochrome P450 assay, AMMC demethylation in rat liver microsomes; type: biochemical; settings: male, Sprague-Dawley, pH 7.4, probe AMMC (30 μM), AMMC substrate, read-out: IC50, inhibition of AMMC demethylation
Protocol: Microsomes were isolated from rat livers (Sprague-Dawley, male, 6-8 weeks) by differential centrifugation as described by Walles and coworkers (2001). Homogenized tissue was centrifuged at 11,000 g for 30 minutes at 4° C. The supernatant was further centrifuged at 170,000 g for 60 minutes at 4° C. The resulting pellet was resuspended in KCl buffer and centrifuged at 200,000 g for 40 minutes at 4° C. The microsomal fraction was then transferred into Tris-sucrose buffer (0.25 M sucrose, 20 mM Tris buffer, 5 mM EDTA). Protein concentrations were determined by bicinchoninic acid micro assay (Pierce). Microsomal solutions were aliquoted and stored at −80° C. until further use.

[7] = tested on: H9c2 and neonatal rat cardiomyocytes; assay: Hydrogen peroxide-induced apoptosis and superoxide production in cells
[8] = mitochondria incubated with control or ischemic cytosols, H-89 48 μmol/L, genistein 25 μmol/L

immunodetection of mitochondrial-encoded cytochrome oxidase I [2]: near-complete loss
Compound: O=C(N[C@H](CO)[C@H](O)c1ccc([N+](=O)[O-])cc1)C(Cl)Cl [CAP, chloramphenicol]
levels of mitochondrial-encoded proteins and respiratory chain activity [1]: not sufficient to alter
infarct size (isolated rat hearts; CAP 300 μm before and after global no-flow ischemia (I/R+CAP), 30 min ischemia, 2 h reperfusion, SEM, n=5, untreated 43.2±3.2%): 16.0±3.6%
CK released after ischemia (isolated rat hearts; CAP administered prior to ischemia, SEM, n=5, untreated 2.25±0.28): 0.27±0.13 U/15 min
infarct size (isolated rat hearts; chloramphenicol administered immediately after ischemia (at reperfusion), n=5, untreated 43.2%): 21.7%
reduction of infarct size (isolated rat hearts; pretreatment of hearts prior to ischemia and reperfusion (summary)): about 90%
coronary flow after ischemia (isolated rat hearts): prevent the associated drop in coronary flow
Complex I State 4 ([3]; −CAP 13.74 ± 6.33): 12.09 ± 4.59 n Atoms O/min/mg
Complex II State 4 ([3]; −CAP 21.70 ± 5.89): 23.04 ± 7.32 n Atoms O/min/mg
Complex II State 3 ([3]; −CAP 85.47 ± 22.2): 83.58 ± 14.4 n Atoms O/min/mg
Complex IV State 4 ([3]; −CAP 113.99 ± 21): 116.89 ± 23 n Atoms O/min/mg
Complex I State 3 ([3]; −CAP 158.57 ± 32): 162.99 ± 31 n Atoms O/min/mg
Complex IV State 3 ([3]; −CAP 209.85 ± 40): 201.09 ± 23 n Atoms O/min/mg
infarct size after ischemia and reperfusion (isolated rabbit heart; 100 μg/mL CAP in buffer throughout: 15 min stabilization, 30 min global ischemia, 2 h reperfusion, mean±SEM, untreated 64.1 (±4.1)): 43.1 (±6.4)
infarct size (isolated rabbit heart; CAP administered only in the last 15 minutes of the 2 hour reperfusion (control for TTC interference)): 69.2±5.7
CK release after global ischemia (isolated rabbit heart; CAP pretreatment, 100 μg/mL): reduced
infarct size, of the area at risk ([4]; CAP 20 mg/kg i.v. 30 min before 30 min occlusion, 4 h reperfusion, untreated 49.3 ±17.7): 18.3%
post-ischemic hypotension (decrease in left ventricular pressure from baseline) ([4]; CAP 20 mg/kg i.v., untreated −34.2±2.3): −13.3±2.2 mm H2O

phosphorylation of p46 [5, 8]: did not affect
Compound: O=S(=O)(NCCNC/C=C/c1ccc(Br)cc1)c1cccc2cnccc12 [H-89]

Compound: CN/C(=N/CCSCc1nc[nH]c1C)NC#N [cimetidine]
CK release (in words) (isolated rat hearts): reduced CK release
infarct size (in words) (isolated rat hearts): dose-dependent reduction
coronary flow after ischemia (isolated rat hearts): prevent the associated drop in coronary flow

phosphorylation of p46 ([5]; mitochondria from an ischemic heart incubated with genistein, no cytosol): able to inhibit
phosphorylation of p46 [5, 8]: reduced phosphorylation
Compound: O=c1c(-c2ccc(O)cc2)coc2cc(O)cc(O)c12 [genistein]

inhibition of CYP2D2 activity (AMMC demethylase) (CYP2D2): did not appear to significantly inhibit
inhibition of CYP2D6 (AMMC demethylation) (CYP2D6): not inhibited
IC50 at 1 h [6]: 500 nM
Compound: Nc1ccc(S(=O)(=O)Nc2ccnn2-c2ccccc2)cc1 [sulfaphenazole]
CK release (in words) (isolated rat hearts): significant reduction
infarct size (in words) (isolated rat hearts): significant reduction
coronary flow after ischemia (isolated rat hearts): prevent the associated drop in coronary flow
rescue from hydrogen peroxide-induced apoptosis and superoxide production [7]: rescued

Compound: gentamicin sulfate
cardioprotection (isolated rat hearts; gentamicin in perfusion buffer): not cardioprotective
